For series [1], the system named is Mycobacterium smegmatis ATCC 9341. Format: cell-based. How it is done: A filter paper disc (8 mm, Toyo Roshi Kaisha, Japan) saturated with antimicrobial sample (40 µL) was placed on the surface of petri dish (87 mm × 15 mm) containing Mueller Hinton Agar (MHA). The plate was incubated at 37 °C, and a clear zone of inhibition surrounding the paper disc was measured in millimeter (mm). […] The titer of the antimicrobial substance solution, in AU/mL, was calculated as (1000/d) D, where D was the dilution factor, and d was the dose, the amount of antimicrobial substance solution added to each spot. AU and the zone of inhibition were measured against Mycobacterium smegmatis ATCC 9341 while optimizing CBSYD1 media.

In series [2] the test system is VRE 5. Format: cell-based, vancomycin-resistant enterococci. How it is done: (§1) The minimal inhibitory concentration (MIC) was determined according to the method described by Weigand et al. ([2008]).
Series [3] deals with VRE 2. Format: cell-based, vancomycin-resistant enterococci. How it is done: as §1
How the values of series [4] were obtained: (§2) The thermal stability of YD1 samples was determined by exposure to 20, 40, 60, 80 and 100 °C for 30 min and to 121 °C/105 kPa for 15 min before analyzing the residual activity. Similarly, pH stability was determined over a range of pH 2–10 using 1 M NaOH or HCl. The effect of protease enzyme on YD1 stability was determined at two different enzyme concentrations (1 and 2 mg/mL).

Series [5] concerns protease enzymes. As to conditions: enzymes at 1 and 2 mg/mL. As to the method: as §2
The test system of series [6] is E. coli spheroplasts. In kind it is cell-based, Escherichia coli. As to conditions: 2 h, 40 µg/mL. As to the method:
Spheroplasts are gram-negative bacteria in which nearly all of the outer membrane (OM) has been removed. Lysozyme destroys the peptide bonds in peptidoglycan and weakens the cell wall. E. coli was grown in 10 mL of MHB, incubated overnight at 37 °C on a shaker at 180 rpm. Each culture (100 µL) was used to inoculate 20 mL of fresh media and incubated at 37 °C for 2 h at 180 rpm. Spheroplasts were prepared as described by Kikuchi et al. ([2015]).
Re-suspended spheroplasts and whole cells suspension were adjusted to OD 570 nm of 0.2 and 100 µL of each was added to a clear, flat-bottomed microtiter plate in duplicate wells. Ten microliters of YD1 in 10 mM Tris–HCl buffer (pH 7) was added to test wells for both preparations (spheroplasts and whole cells) at the indicated different final concentrations. To the control, 10 µL of 10 mM Tris–HCl buffer (pH 7) was added in lieu of YD1. The percentage of intact spheroplasts or whole cells was calculated as: =Sample OD at time X/Sample OD at time0×100
Decrease in the OD of the suspension after addition of a membrane-active agent indicates lysis of spheroplasts.

For series [7], the system named is VRSA. In kind it is cell-based. How it is done: as §1
Series [8] has as its system Mycobacterium smegmatis ATCC 9341. In kind it is cell-based. How it is done:
as §1
This is another data set of the same source.

For series [9], the system named is Enterococcus faecalis ATCC 29212. In kind it is cell-based. As to the method:
as §1

The test system of series [10] is Pseudomonas aeruginosa KCTC 1637. Format: cell-based. As to the method:
as §1

Series [11] deals with Escherichia coli KCTC 1923. Format: cell-based. How it is done:
as §1

For series [12], the system named is Salmonella Typhimurium KCTC 1925. Format: cell-based. As to the method: as §1
For series [13], the system named is Escherichia coli KCTC1923 (E. coli), methicillin-resistant Staphylococcus aureus B15 (MRSA), and vancomycin-resistant enterococci (VRE). In kind it is cell-based. As to the method: as §1
The subject of series [14] is Micrococcus luteus ATCC 9341. In kind it is cell-based. As to the method:
as §1

Series [15] deals with Bacillus subtilis ATCC 6633. In kind it is cell-based. How it is done: as §1
For series [16], the system named is Alcaligenes faecalis ATCC 1004. Format: cell-based. How it is done: as §1
Series [17] deals with Staphylococcus aureus KCTC 1928. Kind of series: MIC determination. In kind it is cell-based. As to conditions: method of Wiegand et al. 2008. As to the method: as §1
Series [18] deals with MRSA B15. Format: cell-based, methicillin-resistant Staphylococcus aureus. As to conditions: method of Wiegand et al. 2008. As to the method:
as §1

The source of these data is article PMC5209312, “Glycin-rich antimicrobial peptide YD1 from B. amyloliquefaciens, induced morphological alteration in and showed affinity for plasmid DNA of E. coli” (AMB Express, 2017).

What is called MIC is the lowest concentration that inhibits growth of the organism. A lower MIC goes with inhibition by little substance.

Like-named read-outs stand apart in the source and are kept apart here. Ends that are not written are not given here.

Regarding “APKGVQGPNG [YD1, Ala-Pro-Lys-Gly-Val-Gln-Gly-Pro-Asn-Gly]”, the “clear zone of inhibition” value in series [1] is “up to 16 mm”. Moreover, the MIC was 64 µg/mL in [2]; 64 µg/mL in series [3]; above 128 µg/mL in series [7]; 8 µg/mL in [8] (ATCC 9341); 64 µg/mL in series [9] (ATCC 29212); 16 µg/mL in [10] (KCTC 1637). The MIC was 8 µg/mL in [11] (KCTC 1923); 32 µg/mL in series [12] (KCTC 1925); 64 µg/mL in series [14] (ATCC 9341); 64 µg/mL in series [15] (ATCC 6633); above 128 µg/mL in series [16] (ATCC 1004). Besides, in series [4] (at or above 100 °C (100 °C 30 min; 121 °C/105 kPa 15 min)), the “thermal stability (activity)” value was “decreased sharply”. In addition, the “pH stability (residual activity)” value in series [4] (pH 4–9, tested pH 2–10 with 1 M NaOH or HCl) was “completely stable”. Moreover, the “thermal stability (residual activity)” value in series [4] (up to 80 °C, 30 min exposure) is recorded as “completely stable”. Moreover, the “effect of protease enzymes on antimicrobial activity” value in [5] is given as “failed to alter”. The substance further showed an intact surviving spheroplasts in [6] above 88%. Besides, the “MIC (range over E. coli KCTC1923, MRSA B15 and VRE)” value in series [13] lay in the range of 8 to 64 µg/mL.
For Bacitracin [reference compound], the MIC was 64 µg/mL in [2] (VRE 5, method of Wiegand et al. 2008); 32 µg/mL in series [3] (VRE 2, method of Wiegand et al. 2008); above 128 µg/mL in series [7] (VRSA, method of Wiegand et al. 2008); above 128 µg/mL in [8] (Mycobacterium smegmatis ATCC 9341, method of Wiegand et al. 2008); 2 µg/mL in series [9] (Enterococcus faecalis ATCC 29212, method of Wiegand et al. 2008); above 128 µg/mL in series [10] (Pseudomonas aeruginosa KCTC 1637, method of Wiegand et al. 2008). Also, the MIC is above 128 µg/mL in series [11] (Escherichia coli KCTC 1923, method of Wiegand et al. 2008); 64 µg/mL in series [12] (Salmonella Typhimurium KCTC 1925, method of Wiegand et al. 2008); 64 µg/mL in series [14] (Micrococcus luteus ATCC 9341, method of Wiegand et al. 2008); 64 µg/mL in series [15] (Bacillus subtilis ATCC 6633, method of Wiegand et al. 2008); above 128 µg/mL in series [16] (Alcaligenes faecalis ATCC 1004, method of Wiegand et al. 2008); above 128 µg/mL in [17]. In series [18], the MIC was determined as 64 µg/mL.
